Measured values taken from ChEMBL document CHEMBL1201862, “PubChem BioAssay data set” (2004).
Activity calls are given as the source filed them.

Tests used:
[1] = molecular target: T1, Short transient receptor potential channel 4 (Mus musculus, UniProt Q9QUQ5); test: block of DAMGO-driven TRPC4 calcium entry – cell-based, HEK293 TRPC4/mu-opioid, Fluo-4 calcium, dose response (AID 434942); format: functional;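 also: potency of inhibitors blocking the TRPC4 calcium response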
T1 sequence (Q9QUQ5 whole entry): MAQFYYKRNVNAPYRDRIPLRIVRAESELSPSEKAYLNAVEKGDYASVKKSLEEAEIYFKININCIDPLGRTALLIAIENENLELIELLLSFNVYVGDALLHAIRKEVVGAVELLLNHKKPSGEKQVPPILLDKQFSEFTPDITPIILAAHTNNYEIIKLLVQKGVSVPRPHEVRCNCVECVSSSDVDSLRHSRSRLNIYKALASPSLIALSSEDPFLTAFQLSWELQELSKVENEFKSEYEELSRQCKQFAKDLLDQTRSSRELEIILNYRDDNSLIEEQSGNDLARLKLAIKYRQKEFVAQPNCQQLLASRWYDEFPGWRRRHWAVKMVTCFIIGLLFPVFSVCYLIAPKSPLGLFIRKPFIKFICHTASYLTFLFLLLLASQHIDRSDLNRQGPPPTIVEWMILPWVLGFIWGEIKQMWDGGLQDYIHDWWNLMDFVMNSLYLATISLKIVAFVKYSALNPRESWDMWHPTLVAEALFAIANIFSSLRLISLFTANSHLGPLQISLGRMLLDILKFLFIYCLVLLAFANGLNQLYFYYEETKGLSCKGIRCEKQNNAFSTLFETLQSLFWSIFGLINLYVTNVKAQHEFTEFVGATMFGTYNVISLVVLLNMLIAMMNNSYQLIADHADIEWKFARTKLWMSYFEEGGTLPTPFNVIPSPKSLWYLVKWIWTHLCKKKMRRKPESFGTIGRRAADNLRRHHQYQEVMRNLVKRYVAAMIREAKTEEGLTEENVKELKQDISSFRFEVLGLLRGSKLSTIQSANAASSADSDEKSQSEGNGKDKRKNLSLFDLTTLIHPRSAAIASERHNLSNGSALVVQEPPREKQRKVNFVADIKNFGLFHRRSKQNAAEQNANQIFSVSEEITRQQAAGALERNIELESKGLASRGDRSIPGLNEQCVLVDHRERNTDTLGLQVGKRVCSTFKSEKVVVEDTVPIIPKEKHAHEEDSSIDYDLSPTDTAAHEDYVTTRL

[2] = molecular target: T2, High affinity choline transporter 1 (Homo sapiens, UniProt Q9GZV3); test: human choline transporter blockers, potency – cell-based, 5-point CRC, membrane potential dye, dose response (AID 504840); format: functional
T2 sequence (Q9GZV3 whole entry): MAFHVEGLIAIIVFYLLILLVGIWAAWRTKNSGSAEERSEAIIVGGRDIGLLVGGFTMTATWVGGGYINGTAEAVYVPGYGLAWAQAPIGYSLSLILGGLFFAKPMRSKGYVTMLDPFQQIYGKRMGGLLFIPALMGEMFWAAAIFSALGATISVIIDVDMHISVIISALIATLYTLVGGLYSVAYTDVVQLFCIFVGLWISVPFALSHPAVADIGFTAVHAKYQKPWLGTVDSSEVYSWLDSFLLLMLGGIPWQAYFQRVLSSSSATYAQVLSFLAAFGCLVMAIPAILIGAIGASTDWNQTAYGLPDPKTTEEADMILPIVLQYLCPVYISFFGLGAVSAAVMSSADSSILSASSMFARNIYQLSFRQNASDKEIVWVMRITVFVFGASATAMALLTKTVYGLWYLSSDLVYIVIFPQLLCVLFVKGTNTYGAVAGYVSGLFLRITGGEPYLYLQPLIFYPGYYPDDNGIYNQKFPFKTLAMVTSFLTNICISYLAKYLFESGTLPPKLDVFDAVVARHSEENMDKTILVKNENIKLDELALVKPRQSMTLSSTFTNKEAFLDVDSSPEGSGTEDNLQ

[3] = OVCAR8 cell viability loss – plate reader, dry powder samples, PAX8 project, dose response (AID 743197); format: functional, cell-based; details: OVCAR-8
[4] = OVCAR-3 cell viability loss – plate reader, dry powder samples, PAX8 inhibitor project, dose response (AID 743044); format: functional, cell-based
[5] = molecular target: Paired box protein Pax-8 (Homo sapiens, UniProt Q06710); test: PAX8 transcriptional activity inhibition in RMG-I – RMG-I cells, luciferase, cherry-pick, dose response (AID 687027); format: functional, cell-based;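 also: luciferase reporter driven by Pax8 target thyroperoxidase promoter measured by SteadyGlo luminescence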
Sequence of Paired box protein Pax-8 (Q06710 whole entry, the tested form may be a part): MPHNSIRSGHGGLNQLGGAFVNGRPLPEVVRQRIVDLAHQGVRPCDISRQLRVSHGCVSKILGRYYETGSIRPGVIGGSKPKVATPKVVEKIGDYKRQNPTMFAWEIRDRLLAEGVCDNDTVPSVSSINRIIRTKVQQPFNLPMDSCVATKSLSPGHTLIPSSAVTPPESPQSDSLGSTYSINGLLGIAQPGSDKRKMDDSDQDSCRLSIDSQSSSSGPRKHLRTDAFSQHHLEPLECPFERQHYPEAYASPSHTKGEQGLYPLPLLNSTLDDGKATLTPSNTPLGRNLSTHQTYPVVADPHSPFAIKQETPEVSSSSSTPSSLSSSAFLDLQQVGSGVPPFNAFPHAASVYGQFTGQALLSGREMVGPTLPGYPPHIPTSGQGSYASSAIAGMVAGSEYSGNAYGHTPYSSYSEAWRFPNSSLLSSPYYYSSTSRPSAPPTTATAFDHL

[6] = molecular target: T3, Carboxy-terminal domain RNA polymerase II polypeptide A small phosphatase 1 (Homo sapiens, UniProt Q9GZU7); test: CTDSP1 inhibitors, concentration-response, biochemical, absorbance readout, ultra-high-throughput screen actives (AID 540297); format: functional
T3 sequence (Q9GZU7 whole entry): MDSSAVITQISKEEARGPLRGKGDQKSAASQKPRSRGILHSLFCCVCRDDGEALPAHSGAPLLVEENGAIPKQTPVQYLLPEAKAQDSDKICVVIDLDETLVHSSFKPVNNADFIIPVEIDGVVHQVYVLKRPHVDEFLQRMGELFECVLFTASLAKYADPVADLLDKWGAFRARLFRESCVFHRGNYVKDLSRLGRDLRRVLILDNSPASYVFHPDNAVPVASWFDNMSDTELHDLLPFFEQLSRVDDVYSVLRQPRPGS

[7] = Trypanosoma cruzi growth suppression in host cells – NIH3T3 host cells, beta-gal luminescence, confirmation (AID 2044); format: functional, cell-based;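 also: intracellular parasites grown in NIH/3T3 mouse fibroblasts as host cells; luminescent beta-galactosidase reporter signal from transgenic T. cruzi replicating inside host cells; inhibitors lower the luminescence signal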
[8] = NIH3T3 cell viability loss – ATP luminescence, mouse fibroblasts, counter-screen, dose response (AID 2010); format: functional, cell-based;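 also: cells exposed to compound for about 90 hours before reading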
[9] = molecular target: Cytochrome P450 3A4 (Homo sapiens, UniProt P08684); details: Potency;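 also: confirmatory qHTS run detecting inhibitors and substrates of CYP3A4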
Sequence of Cytochrome P450 3A4 (P08684 whole entry): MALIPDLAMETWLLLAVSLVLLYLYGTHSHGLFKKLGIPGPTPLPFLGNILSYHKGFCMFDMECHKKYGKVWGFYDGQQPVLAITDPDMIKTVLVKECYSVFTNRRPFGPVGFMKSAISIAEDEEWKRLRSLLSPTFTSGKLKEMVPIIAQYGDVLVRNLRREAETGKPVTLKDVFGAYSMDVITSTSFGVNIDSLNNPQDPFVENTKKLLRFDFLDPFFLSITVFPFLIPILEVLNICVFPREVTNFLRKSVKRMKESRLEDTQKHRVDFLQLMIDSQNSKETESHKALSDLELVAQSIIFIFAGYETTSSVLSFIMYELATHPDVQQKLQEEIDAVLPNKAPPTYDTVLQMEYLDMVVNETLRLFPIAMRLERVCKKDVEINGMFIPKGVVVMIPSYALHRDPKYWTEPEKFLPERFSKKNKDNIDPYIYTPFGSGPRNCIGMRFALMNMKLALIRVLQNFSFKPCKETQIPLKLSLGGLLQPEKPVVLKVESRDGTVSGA

[10] = THP-1 cell cytotoxicity, dose response, cytotoxicity control for non-replicating M. tuberculosis project (AID 489025); format: functional
[11] = cells; format: functional
[12] = system: BJ; test: BJ-TERT-LT-ST fibroblast viability loss – cell-based, RAS-independent, luminescence, dose response (AID 1935); format: functional; details: Homo sapiens;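 also: BJ fibroblasts immortalized with TERT plus LT and ST oncogenes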
[13] = luciferase reporter signal suppression in cells – H4 neuroglioma cells, luminescence, dose response (AID 1990); format: functional, cell-based
[14] = fluconazole-exposed Candida albicans growth modulators – fluorescence, retest, confirmation (AID 2467); format: functional, cell-based
[15] = molecular target: Nonstructural protein 1 (Influenza A virus, UniProt Q194T2); format: functional, Influenza A virus (A/California/07/2009(H1N1))
Sequence of Nonstructural protein 1 (Q194T2 whole entry): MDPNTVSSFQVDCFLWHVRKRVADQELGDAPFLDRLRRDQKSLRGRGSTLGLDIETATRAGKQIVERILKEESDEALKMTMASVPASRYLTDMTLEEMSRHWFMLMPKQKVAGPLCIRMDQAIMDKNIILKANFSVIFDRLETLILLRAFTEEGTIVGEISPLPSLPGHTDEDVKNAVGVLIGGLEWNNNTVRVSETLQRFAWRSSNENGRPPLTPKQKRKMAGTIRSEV

[16] = alpha-synuclein stem-loop luciferase translation blockers – H4 neuroglioma cells, luminescence, confirmation (AID 1988); format: functional, cell-based
[17] = DRD fibroblast viability loss – cell-based, non-viral oncogenic, luminescence, dose response (AID 1934); format: functional; details: Homo sapiens
[18] = NIH-3T3 fibroblast cytotoxicity, dose response, cytotoxicity control, cell-based, fluorescence, Alamar Blue, secondary assay (AID 2327); format: functional;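 also: NIH-3T3 mouse fibroblasts cultured with fluconazole at 8 µg/mL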
[19] = system: BJ; test: cells; format: functional, cell-based; details: Homo sapiens
[20] = system: BJ; test: BJ-TERT fibroblast viability loss – cell-based, RAS-independent, luminescence, dose response (AID 1933); format: functional; details: Homo sapiens
[21] = Luminescence Cell-Based Dose Response HTS to Identify Inhibitors of 5'UTR Stem-Loop Driven Prion Protein mRNA Translation in H4 Neuroglioblastoma Cells. [Related pubchem assays: 1827 (Project Summary), 1813 (Primary HTS)]; format: functional

CC(C)c1nc(CNC(=O)CC2C(=O)NCCN2Cc2ccc(F)cc2Cl)cs1 (stereo unspecified)
EC50 [1]: 1.88 µM (active)

Nc1c(C(=O)OC2CCCCC2)c2nc3ccccc3nc2n1CC1CCCO1 (stereo unspecified)
IC50 [2]: 13.2 µM (active)

CC(NC(=O)c1cccc(OC2CCN(C(=O)C3CC3)CC2)c1)c1ccc(F)cc1 (stereo unspecified)
IC50 [2]: 17.4 µM (active)

CCC1C=C(c2ccccc2)C=CN=C1N(CC)CC (stereo unspecified)
EC50 [1]: 4.22 µM (active)

C[C@H](CO)N1C[C@H](C)[C@H](CN(C)Cc2ccc(C(F)(F)F)cc2)OCCCC[C@H](C)Oc2ccc(NS(=O)(=O)c3ccc(F)cc3)cc2C1=O
AC50 [3]: 58.2 µM (active) | AC50 [4]: 53.3 µM (active) | AC50 [5]: 7.71 µM (active)

CSCC[C@@H](C(=O)NCCCCCCCCCCC(=O)N1CCN(C(=O)OC(C)(C)C)CC1)n1cc(CCO)nn1
IC50 [2]: 14.5 µM (active)

C[C@H](CO)N1C[C@H](C)[C@H](CN(C)Cc2ccc(C(F)(F)F)cc2)OCCCC[C@H](C)Oc2ccc(NC(=O)NC3CCCCC3)cc2C1=O
AC50 [3]: 41.7 µM (active) | AC50 [4]: 41.6 µM (active) | AC50 [5]: 10.1 µM (active)

Cc1ccc(-c2csc(C3=C(N)N(NC(=O)c4ccco4)CC3=O)n2)cc1
IC50 [6]: 12.9 µM (active)

CN(/N=C/c1ccc([N+](=O)[O-])o1)c1ccccc1
EC50 [7]: 0.665 µM (active) | IC50 [2]: 12.9 µM (active) | EC50 [8]: > 60 µM (not active)

CC(=O)N1[C@H](C)C=C[C@]1(Cc1ccccc1)C(=O)NCc1ccccn1
AC50 [9]: 12.6 µM (inconclusive)

Cc1cc(C(=O)N/N=C\c2cc(C(C)(C)C)ccc2O)[nH]n1
EC50 [1]: 6.68 µM (active)

Clc1ccc(OCCOCCN2CCc3ccccc3C2)c(Cl)c1
CC50 [10]: > 40 µM (active) | IC50 [11]: 18.6 µM (active)

Cc1c(CCC(=O)O)c(=O)oc2cc(OCc3ccccc3Br)ccc12
IC50 [6]: 10.6 µM (active)

COc1cc2cc(Oc3ccc4ccc(=O)oc4c3)c(=O)oc2cc1O [DAPHNORETIN]
AC50 [9]: 0.501 µM (inconclusive)

O=C(NC(=S)NNC(=O)c1cnccn1)c1ccc(Cl)cc1
EC50 [12]: > 150 µM (not active) | EC50 [13]: 11.9 µM (active) | EC50 [14]: 1.69 µM (active) | IC50 [15]: 3.01 µM (active) | EC50 [16]: 9.3 µM (active) | EC50 [17]: 25.5 µM (active) | EC50 [18]: 5.78 µM (active) | EC50 [19]: > 150 µM (not active) | EC50 [20]: 22.8 µM (active) | EC50 [21]: 9.78 µM (active)
